Legend:
Test in all cases: post-emergence herbicidal activity, greenhouse
Format in all cases: in vivo
Sugar Beet = settings: Table III, formulated in anhydrous tetrahydrofuran
Procedure, shortened: (§1)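 Plants grown two to three weeks in greenhouse soil pans were atomizer-sprayed with test chemical in spray containing about 0.4% emulsifier, at the listed rates. Injury relative to unsprayed controls observed at approximately two and four weeks after treatment.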

Canada Thistle = settings: Table II
Procedure, shortened: as §1

Pennsylvania Smartweed = system: Pennsylvania Smartweed
Procedure, shortened: as §1

Downy Brome = system: Downy Brome
Procedure, shortened: as §1

Morningglory = system: Morningglory
Procedure, shortened: as §1

Cocklebur = system: Cocklebur
Procedure, shortened: as §1

Large Crabgrass = settings: Table III, formulated in anhydrous tetrahydrofuran
Procedure, shortened: as §1

Rice = settings: Table III, formulated in anhydrous tetrahydrofuran
Procedure, shortened: as §1

Wild Buckwheat = settings: Table III, formulated in anhydrous tetrahydrofuran
Procedure, shortened: as §1

[1] = Table II, 2 WAT, 5.6 kg/h, formulated in anhydrous tetrahydrofuran
[2] = Table II, 2 WAT, 11.2 kg/h, formulated in anhydrous tetrahydrofuran
[3] = Table II, 4 WAT, 11.2 kg/h, formulated in anhydrous tetrahydrofuran
[4] = Table III, 2 WAT, 1.1 kg/h, formulated in anhydrous tetrahydrofuran
[5] = Table III, 2 WAT, 5.6 kg/h, formulated in anhydrous tetrahydrofuran
[6] = Table III, 2 WAT, .28 kg/h, formulated in anhydrous tetrahydrofuran
[7] = Table III, 4 WAT, 5.6 kg/h, formulated in anhydrous tetrahydrofuran

In the case of `CC(C)(C)[Si](OP(=O)(O)CNCC(=O)O)(c1ccccc1)c1ccccc1` [Ex. 5, Glycine, N-((([(1,1-Dimethylethyl)Diphenylsilyl]oxy)-Hydroxyphosphinyl)-Methyl)-,], the “Plant Response Index (M)” value (Sugar Beet; 2 WAT, 1.1 kg/h) was 0 (0-24% inhibition), the “Plant Response Index (M)” value (Sugar Beet; 2 WAT, 5.6 kg/h) was 0 (0-24% inhibition) and the “Plant Response Index (M)” value (Sugar Beet; 2 WAT, .28 kg/h) was 0 (0-24% inhibition). For the same molecule, the “Plant Response Index (M)” value (Sugar Beet; 4 WAT, 5.6 kg/h) was 0 (0-24% inhibition), the “Plant Response Index (A)” value (Canada Thistle; 2 WAT, 5.6 kg/h) was 1 (25-49% inhibition) and the “Plant Response Index (A)” value (Canada Thistle; 2 WAT, 5.6 kg/h, formulated in anhydrous tetrahydrofuran) was 0 (0-24% inhibition). For the same molecule, the “Plant Response Index (A)” value (Canada Thistle; 2 WAT, 11.2 kg/h) was 1 (25-49% inhibition), the “Plant Response Index (A)” value (Canada Thistle; 2 WAT, 11.2 kg/h, formulated in anhydrous tetrahydrofuran) was 0 (0-24% inhibition) and the “Plant Response Index (A)” value (Canada Thistle; 4 WAT, 5.6 kg/h) was 1 (25-49% inhibition). For the same molecule, the “Plant Response Index (A)” value (Canada Thistle; 4 WAT, 11.2 kg/h) was 1 (25-49% inhibition), the “Plant Response Index (A)” value (Canada Thistle; 4 WAT, 11.2 kg/h, formulated in anhydrous tetrahydrofuran) was 1 (25-49% inhibition) and the “Plant Response Index (F)” value (Pennsylvania Smartweed; Table II, 2 WAT, 5.6 kg/h) was 0 (0-24% inhibition). For the same molecule, the “Plant Response Index (F)” value (Pennsylvania Smartweed; [1]) was 0 (0-24% inhibition), the “Plant Response Index (F)” value (Pennsylvania Smartweed; Table II, 2 WAT, 11.2 kg/h) was 2 (50-74% inhibition) and the “Plant Response Index (F)” value (Pennsylvania Smartweed; [2]) was 0 (0-24% inhibition). The “Plant Response Index (F)” value (Pennsylvania Smartweed; Table II, 4 WAT, 5.6 kg/h) was 0 (0-24% inhibition), the “Plant Response Index (F)” value (Pennsylvania Smartweed; Table II, 4 WAT, 11.2 kg/h) was 2 (50-74% inhibition) and the “Plant Response Index (F)” value (Pennsylvania Smartweed; [3]) was 0 (0-24% inhibition). For the same molecule, the “Plant Response Index (F)” value (Pennsylvania Smartweed; [4]) was 0 (0-24% inhibition), the “Plant Response Index (F)” value (Pennsylvania Smartweed; [5]) was 1 (25-49% inhibition) and the “Plant Response Index (F)” value (Pennsylvania Smartweed; [6]) was 0 (0-24% inhibition). For the same molecule, the “Plant Response Index (F)” value (Pennsylvania Smartweed; [7]) was 1 (25-49% inhibition), the “Plant Response Index (J)” value (Downy Brome; Table II, 2 WAT, 5.6 kg/h) was 0 (0-24% inhibition) and the “Plant Response Index (J)” value (Downy Brome; [1]) was 0 (0-24% inhibition). The “Plant Response Index (J)” value (Downy Brome; Table II, 2 WAT, 11.2 kg/h) was 0 (0-24% inhibition), the “Plant Response Index (J)” value (Downy Brome; [2]) was 0 (0-24% inhibition) and the “Plant Response Index (J)” value (Downy Brome; Table II, 4 WAT, 5.6 kg/h) was 0 (0-24% inhibition). For the same molecule, the “Plant Response Index (J)” value (Downy Brome; Table II, 4 WAT, 11.2 kg/h) was 0 (0-24% inhibition), the “Plant Response Index (J)” value (Downy Brome; [3]) was 0 (0-24% inhibition) and the “Plant Response Index (J)” value (Downy Brome; [4]) was 0 (0-24% inhibition). The “Plant Response Index (J)” value (Downy Brome; [5]) was 0 (0-24% inhibition), the “Plant Response Index (J)” value (Downy Brome; [6]) was 0 (0-24% inhibition) and the “Plant Response Index (J)” value (Downy Brome; [7]) was 0 (0-24% inhibition). The “Plant Response Index (D)” value (Morningglory; Table II, 2 WAT, 5.6 kg/h) was 1 (25-49% inhibition), the “Plant Response Index (D)” value (Morningglory; [1]) was 1 (25-49% inhibition) and the “Plant Response Index (D)” value (Morningglory; Table II, 2 WAT, 11.2 kg/h) was 1 (25-49% inhibition). For the same molecule, the “Plant Response Index (D)” value (Morningglory; [2]) was 1 (25-49% inhibition), the “Plant Response Index (D)” value (Morningglory; Table II, 4 WAT, 5.6 kg/h) was 1 (25-49% inhibition) and the “Plant Response Index (D)” value (Morningglory; Table II, 4 WAT, 11.2 kg/h) was 1 (25-49% inhibition). The “Plant Response Index (D)” value (Morningglory; [3]) was 1 (25-49% inhibition), the “Plant Response Index (D)” value (Morningglory; [4]) was 0 (0-24% inhibition) and the “Plant Response Index (D)” value (Morningglory; [5]) was 1 (25-49% inhibition). The “Plant Response Index (D)” value (Morningglory; [6]) was 0 (0-24% inhibition), the “Plant Response Index (D)” value (Morningglory; [7]) was 0 (0-24% inhibition) and the “Plant Response Index (B)” value (Cocklebur; Table II, 2 WAT, 5.6 kg/h) was 2 (50-74% inhibition). For the same molecule, the “Plant Response Index (B)” value (Cocklebur; [1]) was 1 (25-49% inhibition), the “Plant Response Index (B)” value (Cocklebur; Table II, 2 WAT, 11.2 kg/h) was 2 (50-74% inhibition) and the “Plant Response Index (B)” value (Cocklebur; [2]) was 1 (25-49% inhibition). The “Plant Response Index (B)” value (Cocklebur; Table II, 4 WAT, 5.6 kg/h) was 1 (25-49% inhibition), the “Plant Response Index (B)” value (Cocklebur; Table II, 4 WAT, 11.2 kg/h) was 2 (50-74% inhibition) and the “Plant Response Index (B)” value (Cocklebur; [3]) was 1 (25-49% inhibition). For the same molecule, the “Plant Response Index (B)” value (Cocklebur; [4]) was 1 (25-49% inhibition), the “Plant Response Index (B)” value (Cocklebur; [5]) was 0 (0-24% inhibition) and the “Plant Response Index (B)” value (Cocklebur; [6]) was 1 (25-49% inhibition). The “Plant Response Index (B)” value (Cocklebur; [7]) was 0 (0-24% inhibition), the “Plant Response Index (T)” value (Large Crabgrass; 2 WAT, 1.1 kg/h) was 0 (0-24% inhibition) and the “Plant Response Index (T)” value (Large Crabgrass; 2 WAT, 5.6 kg/h) was 1 (25-49% inhibition). For the same molecule, the “Plant Response Index (T)” value (Large Crabgrass; 2 WAT, .28 kg/h) was 0 (0-24% inhibition), the “Plant Response Index (T)” value (Large Crabgrass; 4 WAT, 5.6 kg/h) was 1 (25-49% inhibition) and the “Plant Response Index (O)” value (Rice; 2 WAT, 1.1 kg/h) was 0 (0-24% inhibition). The “Plant Response Index (O)” value (Rice; 2 WAT, 5.6 kg/h) was 0 (0-24% inhibition), the “Plant Response Index (O)” value (Rice; 2 WAT, .28 kg/h) was 0 (0-24% inhibition) and the “Plant Response Index (O)” value (Rice; 4 WAT, 5.6 kg/h) was 0 (0-24% inhibition). For the same molecule, the “Plant Response Index (Q)” value (Wild Buckwheat; 2 WAT, 1.1 kg/h) was 0 (0-24% inhibition), the “Plant Response Index (Q)” value (Wild Buckwheat; 2 WAT, 5.6 kg/h) was 1 (25-49% inhibition) and the “Plant Response Index (Q)” value (Wild Buckwheat; 2 WAT, .28 kg/h) was 0 (0-24% inhibition). For the same molecule, the “Plant Response Index (Q)” value (Wild Buckwheat; 4 WAT, 5.6 kg/h) was 0 (0-24% inhibition).
